Measured values: PMC12064818, “A general assay platform to study protein pharmacology using ligand-dependent structural dynamics” (Nature Communications, 2025)
Several values for one entry are separate records, joined by “and”; a condition that tells them apart may be missing. Identical values can stand only once. Counter-ions that a name gives are not always drawn. Like-named read-outs stand apart in the source and are kept apart here.

How the values were obtained:
PKA-N-HiBiT [1] = target: T1, PKA-N-HiBiT (Homo sapiens, UniProt P17612); experiment: PKA peptide phosphorylation, Kinase-Glo Plus (KGP) assay, PKA-N-HiBiT; assay type: biochemical; parameters: containing amino acids Gly2-Phe351; His10 (N); made in house; host or cells: E. coli BL21(DE3); conditions: for Efficacy / Hill Coef / Max Resp / CC-v2: KGP Rep 1; for CC-v2: curve class
Protocol: (§1) Kinase activity was measured by ATP depletion using the Kinase-Glo Plus (KGP) assay kit (Promega) in 1536-well plate format. […] Controls were added with a Mosquito dispenser (STP LabTech) while compounds were transferred with a pintool to each plate as described in Supplementary Data 8 and incubated for 30 min at ambient temperature. […] Following a 10 min incubation, KGP luminescence was measured with a ViewLux plate reader with 1 sec exposure, with medium to high gain setting, slow speed and 2x binning. Data were normalized to the average of no enzyme control column as 100% kinase inhibition and DMSO control column as 100% phosphorylation reaction progress. See Supplementary Table 5 for additional details.
(§2) Protocol for Abelson kinase (ABL1) and protein kinase A (PKA) peptide phosphorylation assays
(§3) Supplementary Table 5: Protocol for Abelson kinase (ABL1) and protein kinase A (PKA) peptide phosphorylation assays Sequence Param eter Value Description
(§4) 3 Incubation 30 m in Incubate enzym e + com pounds at am bient tem p for 30 m in, protected from light […]
(§5) protocol; dispensed with BioRaptr 2

PKA = conditions: annotation yes/no for kinase library compound; source not given; cited from earlier work
[2] = target: T2, ABL1-N-HiBiT kinase domain (Homo sapiens, UniProt P00519); experiment: SDR assay, ABL1-N-HiBiT; conditions: for ABL1 SDR pSDR50: heatmap data, 128 kinase inhibitors; for SDR Ave Max Response / EC50: ABL1-N-HiBiT qHTS; for EC50: read-out: SDR Ave SDR50, average
T2 sequence (P00519 233-500): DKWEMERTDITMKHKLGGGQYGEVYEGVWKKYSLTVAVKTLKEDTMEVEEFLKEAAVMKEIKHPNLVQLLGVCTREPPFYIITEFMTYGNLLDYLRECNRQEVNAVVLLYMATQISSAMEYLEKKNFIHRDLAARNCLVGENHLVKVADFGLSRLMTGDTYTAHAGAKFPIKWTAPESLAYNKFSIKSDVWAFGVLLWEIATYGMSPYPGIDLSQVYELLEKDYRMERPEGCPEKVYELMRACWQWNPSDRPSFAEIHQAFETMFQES

PKA-N-HiBiT [3] = target: T1, PKA-N-HiBiT; experiment: SDR assay, PKA-N-HiBiT; conditions: for SDR Ave Max Response: average maximal response; for PKA SDR: Log [H-89]
[4] = target: T2, ABL1-N-HiBiT kinase domain; experiment: ABL1 peptide phosphorylation, Kinase-Glo Plus (KGP) assay, ABL1-N-HiBiT; assay type: biochemical; parameters: containing amino acid residues Asp233-Ser500; His10 (N); made in house; host or cells: E. coli BL21(DE3); conditions: for ABL1 KGP pIC50: ABL1, Kinase-Glo Plus (KGP), heatmap data, 128 kinase inhibitors; for IC50: ABL1-N-HiBiT qHTS, average, read-out: ABL1 KGP Ave IC50
Protocol: as §1, §2, §3, §4, §5

[5] = PKA-N-HiBiT qHTS, Kinase-Glo Plus, average, read-out: PKA KGP Ave IC50
[6] = read-out: PKA SDR Ave SDR50, PKA-N-HiBiT qHTS, SDR assay, average
[7] = Figure 2i correlation plot data, read-out: ABL1 Enz Assay Mean (PKA KGP assay pIC50) (converted)
[8] = PKA-N-HiBiT […] Std, ligand 62.5 µM Std
[9] = PKA-N-HiBiT 10 nM SDR, ligand 35.7 µM SDR
[10] = SDR assay, average maximal response

| Molecule | Annotated PKA activity (PKA) | ABL1 SDR pSDR50 [2] | SDR Ave Max Response ([2]; average maximal SDR response) | EC50 ([2]; unit inferred) [µM] | SDR Ave Max Response (PKA-N-HiBiT [3]; PKA-N-HiBiT qHTS, SDR assay) | EC50 (PKA-N-HiBiT [3]; [6]) [µM] | EC50 (PKA-N-HiBiT [3]) [µM] | IC50 (PKA-N-HiBiT [1]; [7]) [µM] | ABL1 KGP pIC50 [4] | IC50 ([4]; unit inferred) [µM] | further results |
| --- | --- | --- | --- | --- | --- | --- | --- | --- | --- | --- | --- |
| Cc1n[nH]c2ccc(-c3cncc(OC[C@@H](N)Cc4c[nH]c5ccccc45)c3)cc12 [A-443654] | yes | 5.32 | -27.36 | 5.63 | 40.10 | 0.188 |  |  |  |  | IC50 (PKA-N-HiBiT [1]; [5]): 2.06 µM |
| O=C(Nc1c[nH]nc1-c1nc2ccc(CN3CCOCC3)cc2[nH]1)NC1CC1 [AT9283] | yes |  |  |  | 67.79 | 0.0453 | 0.0437 |  |  |  | IC50 (PKA-N-HiBiT [1]; [5]): 0.861 µM |
| COc1cc(N2CCOCC2)ccc1Nc1ncc(Cl)c(Nc2ccccc2NS(C)(=O)=O)n1 [CZC 54252 HCl] | no | 5.09 | 69.42 | 9.66 | 40.07 | 1.58 | 1.35 | 33.9 | 5.38 | 10.1 | IC50 (PKA-N-HiBiT [1]; [5]): 49.9 µM |
| c1cc(-c2cc(C3CCNCC3)[nH]n2)ccn1 [ETP 45835 2HCl] | no | 5.02 | -32.09 | 9.57 | 25.66 | 19.7 | 8.32 | 83.2 |  |  |  |
| Cc1cc(O)c2c(c1)C(=O)c1cc(O)cc(O)c1C2=O [Emodin] | no |  | -3.42 |  | -14.68 | 15.2 | 14.1 |  |  |  | Efficacy (PKA-N-HiBiT [1]): -14.49; Hill Coef (PKA-N-HiBiT [1]): 3.19; Max Resp (PKA-N-HiBiT [1]): 8.59; CC-v2 (PKA-N-HiBiT [1]): 4; Efficacy ([4]; KGP Rep 1): 23.75; Hill Coef ([4]; KGP Rep 1): 1.10; Max Resp ([4]; KGP Rep 1): 17.37; CC-v2 ([4]; KGP Rep 1, curve class): 4 |
| O=S(=O)(NCCNC/C=C/c1ccc(Br)cc1)c1cccc2cnccc12 [H-89, reference compound] |  |  |  |  |  |  |  |  |  |  | Standard assay statistics Ave RLU (PKA-N-HiBiT [1]; [8]): 21788.2 RLU; Standard assay statistics S:B (PKA-N-HiBiT [1]; [8]): 6.8; Standard assay statistics S:N (PKA-N-HiBiT [1]; [8]): 6.3; Standard assay statistics Z’ (PKA-N-HiBiT [1]; [8]): 0.328; PKA SDR (PKA-N-HiBiT [3]; M -4.45): 61.3 and 59.1 and 49.2; PKA SDR (PKA-N-HiBiT [3]; M -4.75): 61.4 and 58.5 and 52.3; PKA SDR (PKA-N-HiBiT [3]; M -5.05): 60.9 and 55.5 and 49.6; PKA SDR (PKA-N-HiBiT [3]; M -5.35): 55.3 and 45.9 and 48.2; PKA SDR (PKA-N-HiBiT [3]; M -5.65): 48.5 and 39.4 and 60.1; PKA SDR (PKA-N-HiBiT [3]; M -5.95): 47.4 and 33.3 and 39.2; PKA SDR (PKA-N-HiBiT [3]; M -6.25): 38.3 and 24.0 and 33.5; PKA SDR (PKA-N-HiBiT [3]; M -6.55): 31.1 and 18.8 and 27.3; SDR assay statistics Ave RLU (PKA-N-HiBiT [3]; [9]): 31921.7 RLU; SDR assay statistics S:B (PKA-N-HiBiT [3]; [9]): 1.5; SDR assay statistics S:N (PKA-N-HiBiT [3]; [9]): 2.6; SDR assay statistics Z’ (PKA-N-HiBiT [3]; [9]): -0.628 |
| CN1CCN(c2ccc(Nc3ncc4cc(C#N)c(=O)n(C5CCCC5)c4n3)cc2)CC1 [ON-123300] | no | 7.26 |  |  | 8.96 |  |  |  | 5.62 |  | SDR Ave Max Response [2, 10]: 44.49; EC50 ([2]; SDR assay): 0.0574 µM; IC50 ([4]; Kinase-Glo Plus (KGP) assay): 2.44 µM |
| C=CC(=O)N1CCC[C@@H](n2nc(-c3cccc(C(=O)Nc4ccc(C(C)C)c(C)c4)c3)c3c(N)ncnc32)C1 [PF 06465469] | no | 5.11 | 61.22 | 9.11 | 2.56 |  |  |  | 5.13 | 8.17 |  |
| Cn1cc(-c2[nH]c3cc(NC(=O)[C@H](N)C4CCCCC4)cc4c3c2C=NNC4=O)cn1 [PF-477736] |  |  |  |  |  |  | 1.26 | 4.47 |  |  |  |
| CN(c1ncccc1CNc1nc(Nc2ccc3c(c2)CC(=O)N3)ncc1C(F)(F)F)[S+](C)(=O)[O-] [PF-562271 HCl] |  |  |  |  |  |  | 3.98 | 44.7 |  |  |  |
| Cc1ccc(-n2nc(C(C)(C)C)cc2NC(=O)NCc2cc(F)ccc2Oc2ccc3c(cnn3CCO)c2)cc1 [Pexmetinib] | no | 7.09 |  |  | -18.15 |  |  |  | 5.87 |  | SDR Ave Max Response [2, 10]: 78.07; EC50 ([2]; SDR assay): 0.0817 µM; IC50 ([4]; Kinase-Glo Plus (KGP) assay): 1.36 µM |
| Cc1cc(Nc2ncc3c(n2)N(C)C(=O)N(c2cc(NC(=O)c4cccc(C(F)(F)F)c4)ccc2C)C3)n(C)n1 [Pluripotin] | no |  | 68.08 |  | 2.55 |  |  |  | 6.87 | 0.141 |  |
| N[C@H]1CC[C@H](Nc2nc(Nc3ccc(C(=O)N4CCCCC4)cc3)c3ncn(-c4cccc(F)c4)c3n2)CC1 [Purfalcamine] | no | 6.61 | 91.87 | 0.248 | 23.75 |  | 117 | 22.9 | 5.42 | 3.88 | IC50 (PKA-N-HiBiT [1]; [5]): 30 µM |
| O=c1c(O)c(-c2ccc(O)c(O)c2)oc2cc(O)cc(O)c12 [Quercetin] | no |  | 48.80 | 9.18 | -5.00 |  |  |  |  | 5.88 | Efficacy (PKA-N-HiBiT [1]): -15.69; Hill Coef (PKA-N-HiBiT [1]): 1.22; Max Resp (PKA-N-HiBiT [1]): 9.03; CC-v2 (PKA-N-HiBiT [1]): 4 |
| CN1CCN(Cc2ccc(-c3cnc4[nH]cc(-c5ccc6[nH]ccc6c5)c4c3)cc2)CC1 [URMC-099] | no | 6.40 | 71.62 | 0.411 | 20.11 |  | 229 |  | 5.25 | 5.79 |  |
| Cdk1/2 inhibitor III | no | 6.61 | 75.26 | 0.247 | 32.80 |  |  |  | 5.33 | 4.8 |  |
